Measured values as given in PMC4525181, “Structural and dynamic insights into the energetics of activation loop rearrangement in FGFR1 kinase” (Nature Communications, 2015).
“And” between values parts separate entries of the source, which are not always exact repeats. Equal values may be shown once. Read-outs that look alike come from different tables or passages of the source.

Experiments:
N550K mutation in FGFR2 = details: N550K mutant relative to wild-type, BaF3 cells; cited from earlier work
FGFR1 kinase domain [1] = target: T1, FGFR1 kinase domain (Homo sapiens, UniProt P11362, C488A/C584S); assay: SPR kinetic analysis of inhibitors binding to FGFR1 kinase domain
T1 construct: Human FGFR1 consisting of residues Ala458-Glu765; made in house; host or cells: Escherichia coli, co-expressed with PTP1B
Protocol: The hexa-histidine tag was cleaved from protein by overnight treatment with TEV protease and concomitant dialysis, immediately after the IMAC step. Purified protein in a buffer comprising 20 mM Tris-HCl, pH 8.0, 20 mM NaCl, 2 mM TCEP, was snap frozen in liquid nitrogen and stored at −80 °C. For NMR studies, an additional mutation (Asp623Ala) was introduced to improve the yield of stable isotope-labelled FGFR1 kinase protein[22]. Uniform isotopic labelling was achieved by growing E. coli BL21 (DE3) Star cells in D2O-based M9 minimal medium supplemented with ^15NH4Cl (Cambridge Isotope Laboratories or Sigma Aldrich) together with U-[^1H,^13C]- or (for fully deuterated samples) U-[^2H,^13C]-glucose (Cambridge Isotope Laboratories or Sigma Aldrich) as sole nitrogen and carbon sources, respectively. Purification was by IMAC and ion exchange chromatography; the 6 × His tag was not cleaved from the protein used for NMR. Human Abl consisting of residues Ser248-Val534 with an engineered TEV-cleavable N-terminal 6 × His tag and mutation Asn355Ser was expressed and purified as described[50] with minor modifications. For biophysical studies, the 6 × His tag was retained intact for both kinases as it was used for immobilization on a nitrilotriacetic acid (NTA) sensor chip.
Non-phosphorylated, histidine-tagged FGFR1 and non-phosphorylated, histidine-tagged Abl were immobilized as the ligand onto NTA sensor chips using a capture coupling method. The NTA surface was first activated with 500 μM NiSO4 in immobilization buffer. The carboxymethyl dextran surface was then activated with a 1:1 ratio of 0.4 M EDC and 0.1 M NHS. Hexa-histidine-tagged protein was diluted into immobilization buffer to a concentration of 30 μg ml^−1, and immobilized onto the surface with a 7-min injection. Remaining activated groups were blocked with 0.1 M Tris, pH 8.0. […] PBS, pH 7.4, 50 μM EDTA and 0.05% Surfactant P20 (v/v) (for Abl supplemented with 10% glycerol (v/v)) were used as immobilization buffer. […] SPR experiments were performed using the Biacore 3000, Biacore S51 and Biacore T200 biosensors (GE Healthcare), with NTA and series S NTA sensor chips (GE Healthcare). All FGFR1 binding experiments were done using PBS (pH range 7.0–7.4), 50 μM EDTA, 0.05% Surfactant P20 (v/v) and 1% DMSO (v/v) or 50 mM Bis-Tris (pH range 5.5–6.5), 100 mM NaCl, 50 μM EDTA, 0.05% Surfactant P20 (v/v) and 1% DMSO (v/v), as running buffer. All Abl binding experiments were conducted using PBS, pH 7.4, 50 μM EDTA, 0.05% Surfactant P20 (v/v), 10% glycerol (v/v) and 1% DMSO (v/v) as running buffer. […] Finally, they were diluted 1:100 (v/v) in running buffer without DMSO to achieve the target concentration resulting in a final DMSO concentration of 1% (v/v).
The highest compound concentration varied, but for all analytes five sequential injections with constant injection time and a constant dilution factor were done. All analyte concentrations were injected in one cycle, one after the other for 120 s with a short dissociation phase in between injections (∼60 s) and with a longer dissociation phase at the end of the cycle (1,000 to 20,000 s that varied depending on the expected dissociation rate constant of the analyte). Zero-buffer blank injections were included for referencing. Biacore T200 evaluation software and BIAevaluation 4.1 software, respectively, were used for processing and analysing data. Rate constants were calculated globally from the obtained sensorgram data by fitting to a 1:1 interaction model. Representative sensorgrams are shown in Supplementary Fig. 6. Multi-cycle kinetic analysis was carried out as previously described. Binding affinities (KD) were calculated from the equation KD=koff/kon.

FGFR1 kinase domain [2] = target: T1, FGFR1 kinase domain; assay: Isothermal titration calorimetry (ITC) of inhibitors binding to FGFR1; details: for heat capacity change ΔCp: ITC titrations at 10-35 °C, slope of ΔH vs T; for -TΔS (ITC) / N (ITC stoichiometry) / ΔG (ITC) / ΔH (ITC): 298.15 K
Protocol: ITC experiments were carried out using an ITC200 instrument (Microcal Inc., GE Healthcare)[59]. Final ligand concentrations were achieved by diluting ligand stock solutions in DMSO 1:50 (v/v) in the experimental buffer, resulting in a final DMSO concentration of 2% (v/v). Protein concentration was determined by measuring the absorbance at 280 nm. DMSO concentration in the protein solution was adjusted to 2% (v/v). ITC measurements were routinely performed at 25 °C in 20 mM Tris, pH 7.8, 20 mM NaCl, 2 mM TCEP and 2% DMSO (v/v). The titrations were performed on 10−20 μM FGFR1 in the 200 μl sample cell using 2 μl injections of 0.1−0.2 mM ligand solution every 120 s. To correct for heats of dilution and mixing, the final baseline consisting of small peaks of identical size at the end of the experiment was subtracted. Representative ITC titrations are shown in Supplementary Fig. 2. To determine the heat capacity ΔCp of ligands binding to FGFR1, ITC titrations were performed as described above at 10, 15, 20, 25, 30 and 35 °C. Binding enthalpies derived from ITC experiments were plotted as ΔH against T and ΔCp are given by the slope of the linear regression analysis according to equation (3) (Supplementary Fig. 7): […]

FGFR1 kinase domain [3] = target: T1, FGFR1 kinase domain; assay: SPR thermodynamic analysis (non-linear van't Hoff); format: binding; details: T0=298 K, SPR temperature dependence
Protocol: (§1) Binding affinities (KD) were therefore determined from dosage experiments and binding responses at equilibrium were fit to a 1:1 steady-state affinity model available within the Scrubber 2 software (BioLogic Software Ltd., Campbell, Australia).
(§2) Transition state thermodynamic quantities were determined from the kinetic association (kon) and dissociation (koff) rate constants as previously described[64] by plotting ln (kh/kBT) versus 1/T according to the linear Eyring equation (2).

FGFR1 kinase domain [4] = target: T1, FGFR1 kinase domain; assay: Transition state thermodynamics from linear Eyring plots (SPR rate constants vs temperature); format: binding; details: Eyring analysis
Protocol: as §1, §2
Here k is either the association rate constant (kon) or the dissociation rate constant (koff). ΔH and ΔS are the changes in […] enthalpy and entropy of binding, respectively, while the superscript ‘*' denotes that these refer to a transition state.

FGFR1 Asp623Ala mutant = target: T2, FGFR1 Asp623Ala mutant (Homo sapiens, UniProt P11362, C488A/C584S/D623A); assay: SPR binding to Asp623Ala mutant of FGFR1 kinase domain; details: data not shown
T2 construct: a construct spanning residues Ala458 to Glu765 of human FGFR1; made in house; host or cells: Escherichia coli
Source text: For our studies of the FGFR1 kinase domain, we have used a construct spanning residues Ala458 to Glu765 of human FGFR1 that contains two mutations (Cys488Ala and Cys584Ser) designed to stabilize the enzyme against covalent aggregation. The protein is non-phosphorylated after co-expression with PTP1B and purification from Escherichia coli. An additional mutation of the catalytic aspartate (Asp623Ala) was introduced for NMR studies to increase further the yield of stable isotope-labelled protein. […] In addition, we have confirmed using surface plasmon resonance (SPR) that binding parameters for a close analogue of the canonical FGFR1 inhibitor PD173074 (ref. [23]; henceforth referred to as PDA; Fig. 1a; Supplementary Fig. 1) are unaltered for the Asp623Ala mutant relative to the kinase-active form (data not shown).

Asp641 = Asp641 (UniProt position 641, VMKIADFGLAR); assay: kinetics (surface plasmon resonance); details: 298 K; PBS (pH 7.0-7.4) or 100 mM NaCl with 50 mM Bis-Tris (pH 5.5-6.5); PBS (pH 7.0-7.4) or 50 mM Bis-Tris (pH 5.5-6.5) with 100 mM NaCl. Both contain 50 µM EDTA, 0.05% Surfactant P20 and 1% DMSO.; Non-phosphorylated, initially ligand-free FGFR1 kinase domain immobilised on an NTA chip. The rate reports on the DFG-in to DFG-out transition required for ponatinib binding.

T1 sequence (P11362 458-765 C488A/C584S): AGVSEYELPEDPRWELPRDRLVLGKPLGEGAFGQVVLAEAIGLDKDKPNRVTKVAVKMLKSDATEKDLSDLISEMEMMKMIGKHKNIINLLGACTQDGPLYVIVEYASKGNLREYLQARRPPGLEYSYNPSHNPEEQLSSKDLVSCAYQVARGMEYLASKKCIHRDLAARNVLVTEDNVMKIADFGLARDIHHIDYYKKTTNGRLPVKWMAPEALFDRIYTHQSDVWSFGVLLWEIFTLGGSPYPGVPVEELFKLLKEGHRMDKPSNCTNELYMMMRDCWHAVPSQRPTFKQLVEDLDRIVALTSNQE
T2 sequence (P11362 458-765 C488A/C584S/D623A): as the sequence (P11362 458-765 C488A/C584S) above, with D166A counted along it

Row | Molecule | effect of FGFR2 N550K mutation on inhibitor potency (N550K mutation in FGFR2) | heat capacity change ΔCp (FGFR1 kinase domain [2]) [cal mol^−1 K^−1] | -TΔS (ITC) (FGFR1 kinase domain [2]; ITC) [kcal/mol] | N (ITC stoichiometry) (FGFR1 kinase domain [2]; ITC) | ΔG (ITC) (FGFR1 kinase domain [2]; ITC) [kcal/mol] | ΔH (ITC) (FGFR1 kinase domain [2]; ITC) | ΔG0 van't Hoff (FGFR1 kinase domain [3]) [kcal/mol] | ΔH0 van't Hoff (FGFR1 kinase domain [3]) | −TΔS0 van't Hoff (FGFR1 kinase domain [3]) [kcal/mol] | also measured
1 | CCN(CC)CCCCNc1ncc2cc(-c3cc(OC)cc(OC)c3)c(NC(=O)NC(C)(C)C)nc2n1 [PD173074] | confers resistance | – | – | – | – | – | – | – | – | –
2 | CCN(CC)CCCNc1ncc2cc(-c3cc(OC)cc(OC)c3)c(NC(=O)NC(C)(C)C)nc2n1 [PDA] | – | -359 | 1.1 ± 0.0 | 0.8±0.02 | -11.0 ± 0.0 | -12.1 kcal/mol and -12.1 ± 1.8 kcal/mol | -11.1 ± 0.02 | -11.5 kcal/mol and -11.5 ± 0.8 kcal/mol | 0.4 ± 0.8 | KD, fold weaker in the presence of 1.2 M GdmCl (FGFR1 kinase domain [1]; 1.2 M GdmCl vs absence of GdmCl): ~2 fold; association rate constant as a function of pH (FGFR1 kinase domain [1]; SPR 298 K, pH decreased from 7.4 to 5.5): no dependence on pH; kon (FGFR1 kinase domain [1]; SPR, 1.2 M GdmCl in PBS running buffer, read-out: association rate constant kon in the presence of 1.2 M GdmCl): 680000 M⁻¹ s⁻¹; koff (FGFR1 kinase domain [1]; SPR, 1.2 M GdmCl in PBS running buffer, read-out: dissociation rate constant koff in the presence of 1.2 M GdmCl): 0.0018 s⁻¹; Kd (FGFR1 kinase domain [1]; SPR, 298 K, pH 7.4, read-out: KD (koff/kon)): 5.7 nM; kon (FGFR1 kinase domain [1]; SPR, 298 K, pH 7.4, read-out: association rate constant kon): 1.6e+06 M⁻¹ s⁻¹; koff (FGFR1 kinase domain [1]; SPR, 298 K, pH 7.4, read-out: dissociation rate constant koff): 0.0092 s⁻¹; Kd (FGFR1 kinase domain [2]; ITC, 298 K): 8.8 nM; ΔG# ass (transition state free-energy barrier, association) (FGFR1 kinase domain [4]; association phase): 8.7 ± 1.8 kcal/mol and 8.7 kcal/mol; ΔH# ass (transition state enthalpy, association) (FGFR1 kinase domain [4]; association phase): 16.6 ± 1.3 kcal/mol and 16.6 kcal/mol; −TΔS# ass (transition state entropy, association) (FGFR1 kinase domain [4]; association phase): -7.9 ± 1.3 kcal/mol and -7.9 kcal/mol; -TΔS# diss (FGFR1 kinase domain [4]; dissociation phase): -5.3 ± 1.8 kcal/mol; ΔG# diss (FGFR1 kinase domain [4]; dissociation phase): 19.5 ± 2.6 kcal/mol; ΔH# diss (FGFR1 kinase domain [4]; dissociation phase): 24.8 ± 1.8 kcal/mol; binding parameters for Asp623Ala mutant relative to the kinase-active form (FGFR1 Asp623Ala mutant): unaltered
3 | Cc1ccc(C(=O)Nc2ccc(CN3CCN(C)CC3)c(C(F)(F)F)c2)cc1C#Cc1cnc2cccnn12 [ponatinib] | enhanced inhibitory potency against this mutant relative to wild-type | – | – | – | – | – | – | – | – | –
4 | Fibroblast growth factor receptor 1 (FGFR1) kinase domain (Homo sapiens; C488A;C584S) | – | – | – | – | – | – | – | – | – | pKa (Asp641): 6.25
5 | SU5402 | – | -172 | 2.7 ± 0.2 | 1.0±0.04 | -9.7 ± 0.1 | -12.4 kcal/mol and -12.4 ± 0.2 kcal/mol | -9.5 ± 0.02 | -14.2 kcal/mol and -14.2 ± 0.8 kcal/mol | 4.8 ± 0.8 | –
